Measurements: PubChem BioAssay (NCI)
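1) Cells in 96-well plates. 2) Compound, 48 h, 5 concentrations. 3) Linear interpolation between surrounding doses. 4) Unreached endpoint = highest concentration. Abbreviation: GI50, concentration required for 50% inhibition of growth. The concentration for full growth arrest is given as TGI.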

How the values were obtained:
Test in all cases: NCI-60 cell line screen, 48 h
786-0 renal = test system: 786-0 renal
A498 renal = test system: A498 renal
ACHN renal = test system: ACHN renal
BT-549 breast = test system: BT-549 breast
CAKI-1 renal = test system: CAKI-1 renal
CCRF-CEM leukemia = test system: CCRF-CEM leukemia
DU-145 prostate = test system: DU-145 prostate
EKVX NSCLC = test system: EKVX NSCLC
HCC-2998 colon = test system: HCC-2998 colon
HL-60(TB) leukemia = test system: HL-60(TB) leukemia
HOP-62 NSCLC = test system: HOP-62 NSCLC
HOP-92 NSCLC = test system: HOP-92 NSCLC
HS 578T breast = test system: HS 578T breast
IGROV1 ovarian = test system: IGROV1 ovarian
K-562 leukemia = test system: K-562 leukemia
KM12 colon = test system: KM12 colon
LOX IMVI melanoma = test system: LOX IMVI melanoma
M14 melanoma = test system: M14 melanoma
MALME-3M melanoma = test system: MALME-3M melanoma
MDA-MB-231 breast = test system: MDA-MB-231 breast
MDA-MB-435 = test system: MDA-MB-435
MDA-MB-468 breast = test system: MDA-MB-468 breast
MOLT-4 leukemia = test system: MOLT-4 leukemia
NCI-H226 lung = test system: NCI-H226 lung
NCI-H23 lung = test system: NCI-H23 lung
NCI-H460 lung = test system: NCI-H460 lung
NCI-H522 lung = test system: NCI-H522 lung
NCI/ADR-RES ovarian = test system: NCI/ADR-RES ovarian
OVCAR-4 ovarian = test system: OVCAR-4 ovarian
OVCAR-5 ovarian = test system: OVCAR-5 ovarian
PC-3 prostate = test system: PC-3 prostate
SF-268 CNS = test system: SF-268 CNS
SF-295 CNS = test system: SF-295 CNS
SF-539 CNS = test system: SF-539 CNS
SK-MEL-2 melanoma = test system: SK-MEL-2 melanoma
SK-MEL-28 melanoma = test system: SK-MEL-28 melanoma
SK-MEL-5 melanoma = test system: SK-MEL-5 melanoma
SK-OV-3 ovarian = test system: SK-OV-3 ovarian
SN12C renal = test system: SN12C renal
SNB-19 CNS = test system: SNB-19 CNS
SNB-75 CNS = test system: SNB-75 CNS
SR leukemia = test system: SR leukemia
SW-620 colon = test system: SW-620 colon
T-47D breast = test system: T-47D breast
TK-10 renal = test system: TK-10 renal
U251 CNS = test system: U251 CNS
UACC-257 melanoma = test system: UACC-257 melanoma
UACC-62 melanoma = test system: UACC-62 melanoma
UO-31 renal = test system: UO-31 renal

With `C=C(C)[C@@H]1CC[C@]2(C)[C@H](CC=C3[C@@H]4CC(C)(C)CC[C@]4(C(=O)N4CCOCC4)CC[C@]32C)[C@@]1(C)CCCN` as the compound, how does the GI50 (786-0 renal) read?
The GI50 was 1180 nM.

What about the TGI (786-0 renal) of the same compound?
Its TGI is 2340 nM.

And the GI50 (A498 renal)?
Its GI50 is 1410 nM.

And the TGI (A498 renal)?
Its TGI is 3100 nM.

What about the GI50 (ACHN renal) of the same compound?
Its GI50 is 1340 nM.

And the TGI (ACHN renal)?
Its TGI is 2400 nM.

And the GI50 (BT-549 breast)?
Its GI50 is 9160 nM.

What about the TGI (BT-549 breast) of the same compound?
Its TGI is 24000 nM.

What about the GI50 (CAKI-1 renal) of the same compound?
Its GI50 is 1230 nM.

And the TGI (CAKI-1 renal)?
Its TGI is 2250 nM.

What about the GI50 (CCRF-CEM leukemia) of the same compound?
Its GI50 is 1330 nM.

And the TGI (CCRF-CEM leukemia)?
Its TGI is 3680 nM.

And the GI50 (DU-145 prostate)?
Its GI50 is 1500 nM.

And the TGI (DU-145 prostate)?
The TGI was 2960 nM.

What about the GI50 (EKVX NSCLC) of the same compound?
The GI50 was 1370 nM.

What about the TGI (EKVX NSCLC) of the same compound?
The TGI was 2880 nM.

And the GI50 (HCC-2998 colon)?
Its GI50 is 1220 nM.

What about the TGI (HCC-2998 colon) of the same compound?
Its TGI is 2250 nM.

And the GI50 (HL-60(TB) leukemia)?
The GI50 was 1000 nM.

What about the TGI (HL-60(TB) leukemia) of the same compound?
Its TGI is 3320 nM.

What about the GI50 (HOP-62 NSCLC) of the same compound?
Its GI50 is 1390 nM.

And the TGI (HOP-62 NSCLC)?
The TGI was 2830 nM.

And the GI50 (HOP-92 NSCLC)?
The GI50 was 1250 nM.

And the TGI (HOP-92 NSCLC)?
Its TGI is 2710 nM.

What about the GI50 (HS 578T breast) of the same compound?
Its GI50 is 1400 nM.

And the TGI (HS 578T breast)?
Its TGI is 2990 nM.

What about the GI50 (IGROV1 ovarian) of the same compound?
Its GI50 is 1560 nM.

What about the TGI (IGROV1 ovarian) of the same compound?
Its TGI is 2990 nM.

And the GI50 (K-562 leukemia)?
The GI50 was 1960 nM.

And the TGI (K-562 leukemia)?
The TGI was 73500 nM.

And the GI50 (KM12 colon)?
Its GI50 is 1350 nM.

What about the TGI (KM12 colon) of the same compound?
Its TGI is 2600 nM.

And the GI50 (LOX IMVI melanoma)?
The GI50 was 1250 nM.

And the TGI (LOX IMVI melanoma)?
The TGI was 2260 nM.

And the GI50 (M14 melanoma)?
Its GI50 is 1430 nM.

And the TGI (M14 melanoma)?
The TGI was 3250 nM.

And the GI50 (MALME-3M melanoma)?
The GI50 was 1310 nM.

And the TGI (MALME-3M melanoma)?
The TGI was 2380 nM.

What about the GI50 (MDA-MB-231 breast) of the same compound?
The GI50 was 1370 nM.

And the TGI (MDA-MB-231 breast)?
The TGI was 2430 nM.

What about the GI50 (MDA-MB-435) of the same compound?
Its GI50 is 1220 nM.

And the TGI (MDA-MB-435)?
The TGI was 2310 nM.

And the GI50 (MDA-MB-468 breast)?
The GI50 was 1200 nM.

And the TGI (MDA-MB-468 breast)?
Its TGI is 2330 nM.

What about the GI50 (MOLT-4 leukemia) of the same compound?
Its GI50 is 1730 nM.

What about the TGI (MOLT-4 leukemia) of the same compound?
Its TGI is 4620 nM.

What about the GI50 (NCI-H226 lung) of the same compound?
Its GI50 is 2780 nM.

And the TGI (NCI-H226 lung)?
Its TGI is 16500 nM.

And the GI50 (NCI-H23 lung)?
The GI50 was 1310 nM.

What about the TGI (NCI-H23 lung) of the same compound?
Its TGI is 2450 nM.

What about the GI50 (NCI-H460 lung) of the same compound?
Its GI50 is 1190 nM.

What about the TGI (NCI-H460 lung) of the same compound?
Its TGI is 2250 nM.

What about the GI50 (NCI-H522 lung) of the same compound?
Its GI50 is 1340 nM.

And the TGI (NCI-H522 lung)?
Its TGI is 2550 nM.

What about the GI50 (NCI/ADR-RES ovarian) of the same compound?
The GI50 was 1440 nM.

What about the TGI (NCI/ADR-RES ovarian) of the same compound?
Its TGI is 2770 nM.

What about the GI50 (OVCAR-4 ovarian) of the same compound?
Its GI50 is 1380 nM.

And the TGI (OVCAR-4 ovarian)?
Its TGI is 2690 nM.

And the GI50 (OVCAR-5 ovarian)?
Its GI50 is 1380 nM.

And the TGI (OVCAR-5 ovarian)?
Its TGI is 2690 nM.

And the GI50 (PC-3 prostate)?
Its GI50 is 1490 nM.

And the TGI (PC-3 prostate)?
The TGI was 3870 nM.

What about the GI50 (SF-268 CNS) of the same compound?
Its GI50 is 1980 nM.

What about the TGI (SF-268 CNS) of the same compound?
Its TGI is 6220 nM.

And the GI50 (SF-295 CNS)?
Its GI50 is 1300 nM.

What about the TGI (SF-295 CNS) of the same compound?
The TGI was 2400 nM.

And the GI50 (SF-539 CNS)?
Its GI50 is 1260 nM.

And the TGI (SF-539 CNS)?
The TGI was 2280 nM.

And the GI50 (SK-MEL-2 melanoma)?
The GI50 was 1430 nM.

And the TGI (SK-MEL-2 melanoma)?
Its TGI is 2960 nM.

What about the GI50 (SK-MEL-28 melanoma) of the same compound?
The GI50 was 1240 nM.

What about the TGI (SK-MEL-28 melanoma) of the same compound?
The TGI was 2280 nM.

What about the GI50 (SK-MEL-5 melanoma) of the same compound?
Its GI50 is 1560 nM.

And the TGI (SK-MEL-5 melanoma)?
Its TGI is 3470 nM.

What about the GI50 (SK-OV-3 ovarian) of the same compound?
The GI50 was 7350 nM.

And the TGI (SK-OV-3 ovarian)?
Its TGI is 21300 nM.

And the GI50 (SN12C renal)?
The GI50 was 1290 nM.

What about the TGI (SN12C renal) of the same compound?
The TGI was 2440 nM.

What about the GI50 (SNB-19 CNS) of the same compound?
Its GI50 is 2120 nM.

What about the TGI (SNB-19 CNS) of the same compound?
Its TGI is 6820 nM.

What about the GI50 (SNB-75 CNS) of the same compound?
The GI50 was 2000 nM.

And the TGI (SNB-75 CNS)?
The TGI was 7890 nM.

What about the GI50 (SR leukemia) of the same compound?
The GI50 was 407 nM.

And the TGI (SR leukemia)?
The TGI was 3090 nM.

And the GI50 (SW-620 colon)?
Its GI50 is 1190 nM.

And the TGI (SW-620 colon)?
The TGI was 2270 nM.

And the GI50 (T-47D breast)?
Its GI50 is 1860 nM.

And the TGI (T-47D breast)?
Its TGI is 4700 nM.

And the GI50 (TK-10 renal)?
The GI50 was 1640 nM.

What about the TGI (TK-10 renal) of the same compound?
Its TGI is 4360 nM.

What about the GI50 (U251 CNS) of the same compound?
The GI50 was 1280 nM.

What about the TGI (U251 CNS) of the same compound?
Its TGI is 2390 nM.

What about the GI50 (UACC-257 melanoma) of the same compound?
Its GI50 is 1290 nM.

And the TGI (UACC-257 melanoma)?
The TGI was 2610 nM.

And the GI50 (UACC-62 melanoma)?
Its GI50 is 1560 nM.

And the TGI (UACC-62 melanoma)?
The TGI was 3560 nM.

What about the GI50 (UO-31 renal) of the same compound?
The GI50 was 1350 nM.

What about the TGI (UO-31 renal) of the same compound?
The TGI was 3200 nM.
